Data reported in the NIST ThermoML archive (doi:10.1021/je5010214).
Numbers after ± are expanded uncertainties.

Settings: Liquid, Vibrating tube method

CCCCO [butan-1-ol]
Settings | mass density [kg/m3]
303.15 K, 21920 kPa | 817.555 ± 0.83
303.15 K, 24992 kPa | 819.44 ± 0.84
303.15 K, 31958 kPa | 823.711 ± 0.85
303.15 K, 32862 kPa | 824.267 ± 0.85
303.15 K, 33112 kPa | 824.372 ± 0.85
303.15 K, 34081 kPa | 824.9 ± 0.85
303.15 K, 34980 kPa | 825.355 ± 0.86
303.15 K, 37951 kPa | 827.164 ± 0.86
303.15 K, 39904 kPa | 828.27 ± 0.87
303.15 K, 42014 kPa | 829.398 ± 0.87
303.15 K, 44896 kPa | 831.035 ± 0.88
303.15 K, 47951 kPa | 832.781 ± 0.88
303.15 K, 50065 kPa | 833.864 ± 0.89
303.15 K, 52073 kPa | 834.942 ± 0.89
303.15 K, 55075 kPa | 836.525 ± 0.9
303.15 K, 57989 kPa | 838.099 ± 0.9
303.15 K, 59979 kPa | 839.13 ± 0.91
303.15 K, 62052 kPa | 840.165 ± 0.91
303.15 K, 64988 kPa | 841.599 ± 0.92
303.15 K, 66030 kPa | 842.119 ± 0.92
303.16 K, 100 kPa | 802.125 ± 0.81
303.16 K, 2964.9 kPa | 804.3 ± 0.81
303.16 K, 7045.6 kPa | 807.335 ± 0.81
303.16 K, 8858.2 kPa | 808.638 ± 0.82
303.16 K, 10014 kPa | 809.449 ± 0.82
303.16 K, 18021 kPa | 814.973 ± 0.83
303.16 K, 27933 kPa | 821.256 ± 0.84
303.16 K, 29990 kPa | 822.537 ± 0.85
308.15 K, 274.3 kPa | 798.317 ± 0.81
308.15 K, 494.1 kPa | 798.504 ± 0.81
308.15 K, 803.3 kPa | 798.75 ± 0.81
308.15 K, 1039.5 kPa | 798.954 ± 0.81
308.15 K, 1916.7 kPa | 799.642 ± 0.81
308.15 K, 2980.7 kPa | 800.489 ± 0.81
308.15 K, 4990.2 kPa | 802.048 ± 0.81
308.15 K, 6964.9 kPa | 803.548 ± 0.81
308.15 K, 8864.3 kPa | 804.962 ± 0.82
308.15 K, 9863.1 kPa | 805.692 ± 0.82
308.15 K, 12009 kPa | 807.267 ± 0.82
308.15 K, 17850 kPa | 811.315 ± 0.83
308.15 K, 19930 kPa | 812.759 ± 0.83
308.15 K, 21988 kPa | 814.131 ± 0.83
308.15 K, 25012 kPa | 816.144 ± 0.84
308.15 K, 27955 kPa | 817.999 ± 0.85
308.15 K, 29906 kPa | 819.191 ± 0.85
308.15 K, 31929 kPa | 820.41 ± 0.85
308.15 K, 32886 kPa | 820.911 ± 0.85
308.15 K, 32941 kPa | 821.059 ± 0.85
308.15 K, 34011 kPa | 821.636 ± 0.86
308.15 K, 37971 kPa | 823.987 ± 0.86
308.15 K, 40011 kPa | 825.154 ± 0.87
308.15 K, 41998 kPa | 826.392 ± 0.87
308.15 K, 45017 kPa | 828.081 ± 0.88
308.15 K, 48033 kPa | 829.748 ± 0.89
308.15 K, 50044 kPa | 830.856 ± 0.89
308.15 K, 51977 kPa | 831.933 ± 0.89
308.15 K, 54982 kPa | 833.542 ± 0.9
308.15 K, 58009 kPa | 835.036 ± 0.91
308.15 K, 60030 kPa | 836.098 ± 0.91
308.15 K, 61985 kPa | 837.136 ± 0.92
308.15 K, 64981 kPa | 838.691 ± 0.92
308.16 K, 85.2 kPa | 798.155 ± 0.81
308.16 K, 15069 kPa | 809.4 ± 0.82
308.16 K, 34949 kPa | 822.224 ± 0.86
308.16 K, 66088 kPa | 839.237 ± 0.92
313.15 K, 103.1 kPa | 794.254 ± 0.81
313.15 K, 316 kPa | 794.433 ± 0.81
313.15 K, 569.6 kPa | 794.643 ± 0.81
313.15 K, 1088.8 kPa | 795.074 ± 0.81
313.15 K, 2109.7 kPa | 795.902 ± 0.81
313.15 K, 3137 kPa | 796.707 ± 0.81
313.15 K, 5111.8 kPa | 798.292 ± 0.81
313.15 K, 6921.8 kPa | 799.704 ± 0.81
313.15 K, 9210.7 kPa | 801.445 ± 0.82
313.15 K, 10209 kPa | 802.164 ± 0.82
313.15 K, 12020 kPa | 803.525 ± 0.82
313.15 K, 15059 kPa | 805.716 ± 0.82
313.15 K, 17921 kPa | 807.72 ± 0.83
313.15 K, 19932 kPa | 809.082 ± 0.83
313.15 K, 22058 kPa | 810.55 ± 0.84
313.15 K, 24862 kPa | 812.41 ± 0.84
313.15 K, 27869 kPa | 814.438 ± 0.85
313.15 K, 29957 kPa | 815.731 ± 0.85
313.15 K, 32107 kPa | 817.091 ± 0.85
313.15 K, 32980 kPa | 817.674 ± 0.86
313.15 K, 33002 kPa | 817.783 ± 0.86
313.15 K, 33981 kPa | 818.214 ± 0.86
313.15 K, 35045 kPa | 818.819 ± 0.86
313.15 K, 38127 kPa | 820.76 ± 0.87
313.15 K, 41978 kPa | 822.973 ± 0.88
313.15 K, 44946 kPa | 824.676 ± 0.88
313.15 K, 47880 kPa | 826.39 ± 0.89
313.15 K, 52097 kPa | 828.677 ± 0.9
313.15 K, 54924 kPa | 830.321 ± 0.9
313.15 K, 58082 kPa | 831.994 ± 0.91
313.15 K, 59932 kPa | 832.96 ± 0.91
313.15 K, 62004 kPa | 834.048 ± 0.92
313.15 K, 64954 kPa | 835.652 ± 0.93
313.15 K, 66113 kPa | 836.222 ± 0.93
313.16 K, 860.7 kPa | 794.888 ± 0.81
313.16 K, 39997 kPa | 821.817 ± 0.87
313.16 K, 50021 kPa | 827.556 ± 0.89
318.15 K, 72.7 kPa | 790.456 ± 0.81
318.15 K, 150.1 kPa | 790.516 ± 0.81
318.15 K, 336.3 kPa | 790.675 ± 0.81
318.15 K, 1105.7 kPa | 791.334 ± 0.81
318.15 K, 1929.1 kPa | 792.026 ± 0.81
318.15 K, 2933.2 kPa | 792.866 ± 0.81
318.15 K, 8989 kPa | 797.678 ± 0.82
318.15 K, 10075 kPa | 798.523 ± 0.82
318.15 K, 11896 kPa | 799.896 ± 0.82
318.15 K, 18102 kPa | 804.461 ± 0.83
318.15 K, 19985 kPa | 805.78 ± 0.83
318.15 K, 22094 kPa | 807.257 ± 0.84
318.15 K, 29998 kPa | 812.541 ± 0.85
318.15 K, 33016 kPa | 814.458 ± 0.86
318.15 K, 37838 kPa | 817.415 ± 0.87
318.15 K, 40093 kPa | 818.817 ± 0.87
318.15 K, 44884 kPa | 821.648 ± 0.88
318.15 K, 47944 kPa | 823.402 ± 0.89
318.15 K, 54944 kPa | 827.433 ± 0.91
318.15 K, 57972 kPa | 829.016 ± 0.91
318.15 K, 59923 kPa | 830.12 ± 0.92
318.15 K, 65022 kPa | 832.785 ± 0.93
318.15 K, 66028 kPa | 833.327 ± 0.93
318.16 K, 590.9 kPa | 790.894 ± 0.81
318.16 K, 891 kPa | 791.16 ± 0.81
318.16 K, 5020.8 kPa | 794.556 ± 0.81
318.16 K, 6926.7 kPa | 796.098 ± 0.81
318.16 K, 14800 kPa | 802.072 ± 0.83
318.16 K, 24873 kPa | 809.191 ± 0.84
318.16 K, 27909 kPa | 811.139 ± 0.85
318.16 K, 31957 kPa | 813.824 ± 0.86
318.16 K, 34110 kPa | 815.009 ± 0.86
318.16 K, 35048 kPa | 815.63 ± 0.86
318.16 K, 41996 kPa | 819.89 ± 0.88
318.16 K, 49950 kPa | 824.565 ± 0.9
318.16 K, 52037 kPa | 825.741 ± 0.9
318.16 K, 61930 kPa | 831.241 ± 0.92
323.15 K, 95 kPa | 786.145 ± 0.81
323.15 K, 296.1 kPa | 786.326 ± 0.81
323.15 K, 528.4 kPa | 786.535 ± 0.81
323.15 K, 994.2 kPa | 786.944 ± 0.81
323.15 K, 2006.9 kPa | 787.814 ± 0.81
323.15 K, 2966.6 kPa | 788.632 ± 0.81
323.15 K, 4996.2 kPa | 790.328 ± 0.81
323.15 K, 7042.1 kPa | 792.001 ± 0.81
323.15 K, 9029.9 kPa | 793.564 ± 0.82
323.15 K, 10090 kPa | 794.392 ± 0.82
323.15 K, 11914 kPa | 795.8 ± 0.82
323.15 K, 15111 kPa | 798.229 ± 0.83
323.15 K, 17981 kPa | 800.333 ± 0.83
323.15 K, 20038 kPa | 801.815 ± 0.83
323.15 K, 21995 kPa | 803.198 ± 0.84
323.15 K, 24993 kPa | 805.264 ± 0.84
323.15 K, 32079 kPa | 809.955 ± 0.86
